{"source": "patent US4093713A", "about": "“Dipeptide derivatives with central nervous system activity and preparation thereof” (Ayerst McKenna & Harrison Ltd., priority 1977, dated 1978)", "origin": "cited, not measured here", "key": {"[1]": {"tested_on": "behavioral effects of L-DOPA", "conditions": "literature: Plotnikoff 1971, Friedman 1973"}, "effects of oxotremorin": {"tested_on": "effects of oxotremorin", "conditions": "literature: Plotnikoff 1972"}, "[2]": {"tested_on": "sedative effects of deserpidine", "conditions": "mice; literature: Plotnikoff"}, "[3]": {"tested_on": "sedative effects of deserpidine", "conditions": "monkeys; literature: Plotnikoff"}, "[4]": {"conditions": "in vivo"}}, "note": "Where two headings read alike, the source gives them in different places.", "data": [{"substance": "H-L-prolyl-L-leucyl-glycinamide [H-Pro-Leu-Gly-NH2]", "values": [{"measurement": "potentiation of the behavioral effects of L-DOPA", "setting": "[1]", "value": "potentiates the behavioral effects of (3,4-dihydroxyphenyl)-L-alanine (L-DOPA)"}, {"measurement": "antagonism of the effects of oxotremorin", "setting": "effects of oxotremorin", "value": "antagonizes the effects of oxotremorin"}, {"measurement": "reversal of the sedative effects of deserpidine", "setting": "[2]", "value": "reverses the sedative effects of deserpidine"}, {"measurement": "reversal of the sedative effects of deserpidine", "setting": "[3]", "value": "reverses the sedative effects of deserpidine"}, {"measurement": "duration of action", "setting": "[4]", "value": "short duration of action"}, {"measurement": "first step in the inactivation", "setting": "[4]", "value": "proteolytic cleavage of the Pro-Leu bond with formation of proline and leucyl-glycinamide"}]}]}
